According to US20140162974A1, “METHODS FOR MODULATION OF PHOSPHORUS AND FGF23” (Luitpold Pharmaceuticals, Inc., priority 2012, published 2014):

Assays:
phosphate = assay: Prior studies 1VIT04002/1VIT04003: phosphate change after FCM; format: in vivo, human; conditions: iron deficiency anemia secondary to heavy uterine bleeding; measured at baseline and days 7, 14, 28, 42; N=228
[1] = system: hemoglobin, ferritin, TSAT; assay: VIT-30 efficacy: hemoglobin and iron indices; format: in vivo, human
Procedure: (§1) Study visits were on Days 0, 3, 7, 10, 14, 28, 56, and 120. A phone assessment occurred on Day 90.
The Venofer Group received 5 doses of Venofer, 200 mg for a total dose of 1,000 mg.
For Venofer, subjects received, as an IV push injection over 2 to 5 minutes, 200 mg on Days 0, 7, and 14 with 2 additional doses given: 1 between Days 0 and 7 and the other between Days 7 and 14 (i.e., for a total of 5 doses [1,000 mg]).
For efficacy, the primary efficacy measure was the mean change from baseline to the highest observed hemoglobin any time between baseline and end of treatment period (Day 56) or time of intervention. Supportive efficacy measures included the following: (a) proportion of subjects achieving an increase in hemoglobin of ≧1 g/dL any time between baseline and end of treatment period (Day 56) or time of intervention; (b) mean change from baseline to the highest observed ferritin any time between baseline and treatment period (Day 56) or time of intervention; (c) mean change from baseline to the highest observed TSAT any time between baseline and treatment period (Day 56) or time of intervention; and (d) mean change from baseline to the pre-dosing value on Day 7 for hemoglobin, ferritin, and TSAT.
The hemoglobin baseline was defined as the average of the last 2 hemoglobin values from the central laboratory prior to the first dose of study drug. If only 1 centrally-measured hemoglobin value was available prior to the first dose of study drug, the single value was used for baseline. Non-inferiority was concluded if the lower limit of the 2-sided CI was ≧−0.075. This non-inferiority margin preserved >50% of the difference from oral iron observed previously.
The mean change from baseline to highest TSAT and ferritin was assessed for treatment group differences with the 95% 2-sided CI (based on normal distribution, assuming equal variances). Mean change from baseline to each scheduled visit was similarly assessed for hemoglobin, TSAT, ferritin, serum iron, total iron binding capacity, and unsaturated iron binding capacity. Baseline was calculated as described above. Assessments were assigned to scheduled visits as follows (if the assessment was on a dosing day for IV iron, the assessment before dosing was selected): • Day 7: Assessments on Days 4 through 10. • Day 14: Assessments on Days 11 through 21. • Day 28: Assessments on Days 22 through 35. • Day 56: Assessments on Days 50 through 63.

FGF-23 = assay: VIT-30: FGF-23; format: in vivo, human
Excerpt: (§2) FIG. 1 is a line and scatter plot showing mean changes in phosphate (left vertical axis) or changes in FGF-23 (right vertical axis) with respect to baseline value at each study day (0, 7, 14, 28, or 56) as indicated on the Horizontal (X) axis for trial VIT30. […] Further details regarding methodology are provided in Example 2.
as §1
For quantitative baseline characteristics, the association with FGF-23 at Screening was evaluated with Pearson product moment and Spearman correlations. For qualitative baseline characteristics, the association with FGF-23 at Screening was evaluated with mean differences in FGF-23 among categories of the baseline characteristic.
Descriptive statistics for FGF-23 at Screening (mean, median, standard deviation, quartiles, minimum, and maximum) were summarized for subgroups.

serum phosphate = assay: VIT-30: serum phosphate; format: in vivo, human
Excerpt: as §2, §1
Clinical laboratory variables were presented in 2 ways. First, change from baseline to Day 7, Day 14, Day 28, and Day 56 were summarized. Baseline was defined as the last value obtained prior to the first injection of study drug. Second, the number and proportion of subjects with treatment-emergent PCS laboratory values were tabulated. Treatment-emergent PCS values were those in which the baseline value was normal and post-baseline value was abnormal (i.e., met Grade 3 or Grade 4 toxicity criteria from the National Cancer Institute Common Toxicity Criteria for Adverse Events, Version 3.0 [NCI CTCAE]).
For serum phosphate and platelet count, change from baseline to the smallest value after baseline and final value were also summarized. For subjects whose baseline value was above the lower reference range and who had at least 1 value below the lower reference range after baseline, the following were summarized: the number of days from baseline to the first value below the lower reference range and the number of days from the first value below the lower reference range until the first succeeding value within the reference range.

[2] = Intra-arterial, perivenous, or intravenous tolerance studies; format: in vivo, rabbit; conditions: intra-arterial
[3] = In vitro and in vivo mutagenicity tests
dextran antibodies = assay: Dextran antigenicity test
Excerpt: (§3) FCM can mimic physiologically occurring ferritin. FCM is metabolized by the glycolytic pathway.

[4] = Acute toxicity relative to iron sucrose; conditions: in vivo
Excerpt: as §3

[5] = Days 7, 14, 28, 56, trial VIT30

polynuclear iron (III)-hydroxide 4(R)-(poly-(1→4)-O-α-glucopyranosyl)-oxy-2(R),3(S),5(R),6-tetrahydroxy-hexanoate [FCM]
mean change in phosphate (phosphate): 1.9 mg/dL | proportion of subjects with an increase in hemoglobin ≧1.0 g/dL, FCM compared with Venofer ([1]; anytime between baseline and Day 56 or time of intervention): statistically significantly greater | mean increases in ferritin, TSAT, serum iron and mean decreases in TIBC and unsaturated IBC, FCM compared with Venofer ([1]; baseline to highest value between baseline and Day 56 or time of intervention): statistically significantly greater | mean increase in hemoglobin from baseline to highest value, FCM compared with Venofer ([1]; between baseline and Day 56 or time of intervention): statistically significantly greater | noninferiority test on mean increase in hemoglobin, FCM to Venofer ([1]; lower limit of 2-sided 95% CI ≧−0.2): noninferiority | noninferiority test on proportion with hemoglobin increase ≧1.0 g/dL, FCM to Venofer ([1]; overall population, 2-sided 95% CI): noninferiority | changes in FGF-23 with respect to baseline (FIG. 1) (FGF-23; [5]): almost always decreases with respect to baseline (except for FCM on Day 14) | FGF 23 change from baseline to Day 56 within group (FGF-23; in vivo): statistically significant decrease | mean changes in phosphate with respect to baseline (FIG. 1) (serum phosphate; [5]): decreased with respect to baseline values | incidence of serum phosphate<2.0 mg/dL (serum phosphate; chronic kidney disease trial of 2500 patients, 120 days of follow-up (see Example 2)): 18.5% | proportion of subjects with PCS low phosphorus (serum phosphate; treatment-emergent potentially clinically significant value): 18.5% | treatment-related local tissue irritation [2]: No treatment-related local tissue irritation was observed | clastogenicity, mutagenicity, chromosomal damage or bone marrow cell toxicity [3]: no evidence | specific responses in a dextran antigenicity test (dextran antibodies): no specific responses | acute toxicity relative to iron sucrose [4]: one-fifth
